Laboratory results taken from paper PMC4013589, “LXXLL Peptide Converts Transportan 10 to a Potent Inducer of Apoptosis in Breast Cancer Cells” (International Journal of Molecular Sciences, 2014).
Entries after “also recorded” stand apart in the source; their conditions may differ. Where no end group is shown, it is not given here.

Key:
[1] = system: MCF-7 breast cancer cells; assay: WST-1 viability assay, MCF-7 cells; assay type: cell-based, human; details: WST-1, 5 μM peptide, treated every 24 h, day 3, 1% FBS without insulin; triplicate
Procedure: (§1) Figure 1. Effects of SRC-1 bioportides on cancer and primary fibroblast cells. (A) Viability of MCF-7 cells; (B) Viability of FB188 cells. Cells were seeded in 96-well plates at a density of 3000 or 2000 cells/well, respectively, and treated after every 24 h with the indicated peptide concentrations. Viability of both cell types was monitored at day 3 via the WST-1 assay. The values shown represent the mean values of one experiment, carried out in triplicate (mean ± SD). In total, three independent experiments were performed.
(§2) Cytotoxicity of peptides was measured via the WST-1 conversion assay (Roche, Mannheim, Germany). FB188 and MCF-7 cells were seeded in 96-well plates at a density of 2000 or 3000 cells/well, respectively, and allowed to adhere overnight. Subsequently the cells were pre-incubated for two days in medium containing 1% FBS without supplementary insulin and exposed to the indicated concentrations of the respective peptide for up to 3 days. WST-1 conversion was determined by colorimetric analysis at 450 nm. Briefly, WST-1 reagent (1/10 of sample volume) was added directly to the growth medium and incubated at 37 °C for 4 h. The absorbance was determined using a microplate reader (Molecular Devices, Sunnyvale, CA, USA) at 450 nm. Untreated cells were designated a cell survival value of 100%.

[2] = system: human primary fibroblasts (FB188 cells); assay: WST-1 viability assay, primary fibroblasts (FB188); assay type: cell-based
Procedure: as §1, §2

[3] = system: HeLa cervical cancer cells; assay: Toxicity to HeLa cells; assay type: cell-based, human; details: for Toxicity to HeLa cells: data not shown, concentration not given
[4] = system: MDA-MB-231 cells; assay type: cell-based, human; details: for Effect on survival of MDA-MB-231 cells: propidium iodide viability assay, 5 μM every 24 h for 4 days, 1% FBS
Procedure: (§3) Figure 3. Inhibition of cell viability by SRC-1 bioportides and their influence on ERα-mediated gene transactivation. (A) MCF-7 cells; (B) MDA-MB-231 cells. Cells were seeded in 24-well plates at low density and were treated every 24 h for 4 days with 5 μM peptide. Cell proliferation was measured after 1, 3, and 4 days of peptide treatment via a propidium iodide viability assay. […] MCF-7 cells were cultured with 5 μM of the indicated peptides and analyzed on day 2 of treatment. The fold change is the value compared with untreated cells. The values shown represent the mean values of one representative experiment, carried out in triplicate (mean ± SD). In total, three independent experiments were performed.
(§4) Cells were plated at low density in 24-well plates in standard growth medium, as described above. Before peptide treatment, MCF-7 cell growth was impeded by growing cells in 1% FBS containing medium without addition of insulin. At the day of treatment, peptides were added to the growth medium containing 1% FBS to the indicated final concentration. The procedure was repeated every 24 h for 4 days; samples were drawn after 1, 3, and 4 days of treatment and analyzed by cell counting using the propidium iodide viability assay (Nucleocounter, ChemoMetec, Allerød, Denmark) according to manufacturer’s instructions.

[5] = system: MCF-7 cells; assay type: cell-based, human; details: for Effect on survival of MCF-7 cells: propidium iodide viability assay, 5 μM every 24 h for 4 days, 1% FBS without insulin
Procedure: as §3, §4

[6] = system: pS2 mRNA in MCF-7 cells; assay: Quantitative RT-PCR of ERα target gene pS2, MCF-7; assay type: cell-based, human; details: MCF-7, 5 μM peptide, day 2, qRT-PCR relative to GAPDH, versus untreated cells
Procedure: as §3
(§5) For quantitative RT-PCR (qPCR) analysis, MCF-7 cells were treated as described above for the proliferation assay. On day 2, cells were lysed and total RNA was extracted using a commercial RNAqueous Kit (Ambion, Austin, TX, USA). Genomic DNA was removed with DNase I treatment (Ambion) according to the supplier’s protocol. RNA was reverse-transcribed using SuperScript III Reverse Transcriptase (Invitrogen, Carlsbad, CA, USA). Subsequently, qPCR was performed using Platinum SYBR Green (Invitrogen) according to the manufacturer’s protocol. […]

[7] = system: MCF-7 cells; assay: Annexin V / 7-AAD flow cytometric detection of apoptosis; assay type: cell-based, human; details: MCF-7, 5 μM peptide, 24 h, 1% FBS without insulin, flow cytometry
Procedure: Figure 4. Flow cytometric detection of apoptosis by annexin V and 7-amino-actinomycin D (7-AAD) staining. (A) Representative dot plots of 7-AAD versus annexin-V-PE. MCF-7 cells were left untreated (control) or were treated with 5 μM of peptide for 24 h in media supplemented with 1% serum. The lower left quadrant contains the vital (double negative) population; the lower right contains the apoptotic (annexin V^+/7-AAD^−) population; the upper right contains the late apoptotic/necrotic (annexin V^+/7-AAD^+) population; and the upper left contains the pre-necrotic (annexin V^−/7-AAD^+) population; (B) Average percentage of apoptotic and late apoptotic/necrotic cells counted from dot plots taken from one representative experiment, error bars indicate mean ± SD. Data are statistically significant with * p < 0.05, ** p < 0.01. In total, three independent experiments were performed.
Annexin V staining was measured using the PE-annexin-V Apoptosis Detection Kit I (BD Biosciences, San Diego, CA, USA). MCF-7 cells (3 × 10^5) were treated for 24 h with 5 μM peptide in growth medium supplemented with 1% FBS and without insulin. […] Following the addition of 0.4 mL of 1× Binding Buffer, fluorescence of annexin V and 7-AAD was detected in the FL-2 and FL-3 channels, respectively, within 1 h using a FACS Calibur flowcytometer (BD Biosciences, Sparks, MD, USA). […]

[8] = system: BCL2 mRNA in MCF-7 cells; assay: Quantitative RT-PCR of ERα target gene BCL2, MCF-7; assay type: cell-based, human; details: MCF-7, 5 μM peptide, day 2, qRT-PCR; similar to TP10 or TP10-SRC1_1222–1245 treated cells
Procedure: as §3, §5

[9] = system: CTSD mRNA in MCF-7 cells; assay: Quantitative RT-PCR of ERα target gene CTSD, MCF-7; assay type: cell-based, human; details: MCF-7, 5 μM peptide, day 2, qRT-PCR; similar to TP10 or TP10-SRC1_1222–1245 treated cells
Procedure: as §3, §5

Substance | Effect on viability of MCF-7 cells [1] | Toxicity to HeLa cells [3] | Effect on survival of MDA-MB-231 cells [4] | Effect on survival of MCF-7 cells [5] | pS2 mRNA levels [6] | also measured
NLS-RRRRRRR [R7, hepta-arginine cell-penetrating peptide with SV40 NLS, control, reference compound] | did not have any effect |  |  |  |  | Effect on viability of human primary fibroblasts ([2]; WST-1, 5 μM peptide, treated every 24 h, day 3, 1% FBS, triplicate): did not have any effect
NLS-RRRRRRR-PQMQQNVFQYPGAGMVPQGEANF [R7-SRC1_1222–1245, randomly chosen non-structured fragment of SRC-1 with N-terminal R7; negative control] |  | not toxic | did not affect survival | did not affect survival |  | 
NLS-RRRRRRR-YSQTSHKLVQLLTTAEQQ [R7-SRC1LXXLL] |  | not toxic | did not affect survival | did not affect survival |  | 
PKKKRKVAGYLLGKINLKALAALAKKILYSQTSHKLVQLLTTAEQQ [TP10-SRC1LXXLL] | significantly more toxic; also recorded: highly cytotoxic |  |  | significant cytotoxic effects | No down-regulation | Cytotoxicity to HeLa cells ([3]; 5 μM): highly cytotoxic; Annexin V and 7-AAD double-stained (late apoptotic/necrotic) cells [7]: smaller population of cells that stained for both 7-AAD and annexin V; Annexin V (+)/7-AAD (−) stained (early apoptotic) cells ([7]; compared with untreated cells): predominant population of annexin V positive and 7-AAD negative cells; Concentration affecting the viability of primary fibroblasts ([2]; WST-1, day 3): ≥ 4 µM; BCL2 mRNA expression [8]: slightly elevated; Cells killed ([4]; MDA-MB-231, 5 μM every 24 h, day 3, propidium iodide assay): 99%; Number of viable cells ([4]; MDA-MB-231, 5 μM every 24 h, day 4, propidium iodide assay): less than 1%; Cells killed ([5]; MCF-7, 5 μM every 24 h, day 3, propidium iodide assay): 50%; Number of viable cells ([5]; MCF-7, 5 μM every 24 h, day 4, propidium iodide assay): less than 1%; CTSD mRNA expression [9]: slightly elevated
TP10 [reference compound] | did not have any effect |  |  |  | No down-regulation | 
